Residues, ends and D or L forms follow the SMILES beside them. *: point of attachment. Cbz = O=C(OCc1ccccc1)*; Boc = CC(C)(C)OC(=O)*
Tests used:
[1] = molecular target: T1, FGF14:Nav1.6 complex (Homo sapiens, UniProt Q92915); assay: Split-luciferase complementation assay (LCA) in HEK293 cells expressing CLuc-FGF14 and CD4-Nav1.6-NLuc; assay type: cell-based; details: 50 μM, normalized to DMSO control
T1 construct: FGF14 and the C-tail of Nav1.6 channels are fused to vectors expressing CLuc and NLuc luciferase reporter; expressed in transfected cells; host or cells: HEK293, transient transfection
T1 sequence (Q92915 1-252 isoform Q92915-2): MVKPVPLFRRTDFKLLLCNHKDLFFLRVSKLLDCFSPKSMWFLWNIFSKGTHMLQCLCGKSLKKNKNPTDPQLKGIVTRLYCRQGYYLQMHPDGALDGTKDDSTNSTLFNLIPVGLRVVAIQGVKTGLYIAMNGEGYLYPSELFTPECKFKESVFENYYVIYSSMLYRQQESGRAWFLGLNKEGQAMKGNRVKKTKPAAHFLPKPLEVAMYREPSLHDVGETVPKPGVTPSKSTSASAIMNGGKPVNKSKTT
Description: Detailed methods for LCA can be found is known in the art. See e.g., Shavkunov A. S., et al., Methods in Molecular Biology 1278:497-514 (2015). Statistical values were calculated as mean and standard error of the mean (mean±SEM), unless otherwise specified. The statistical significance (*p<0.05) of different groups was determined by Student's t-test, one-way ANOVA with post-hoc Bonferroni's method or Kruskal-Wallis one-way ANOVA on ranks with post-hoc Dunn's method using Sigma Stat (San Jose, Calif.) and Graph PrismR (La Jolla, Calif.) software. Dose-response modulation was determined by: y=START+(END−START)*x^n/(k^n+x^n) where k, Michaelis constant; n, cooperative sites; x, independent variable; y, dependable variable.
To monitor the role of compounds of the invention in the FGF14:Nav1.6 complex, certain embodiments of the invention were screened by split-luciferase complementation assay (LCA) where FGF14 and the C-tail of Nav1.6 channels are fused to vectors expressing CLuc and NLuc luciferase reporter. Compounds of the invention, as exemplified by, compounds ZL0141, ZL0148, ZL0181, and ZL0182 (see FIG. 1) were tested at 50 μM in HEK293 cells expressing CLuc-FGF14 and CD4:Nav1.6-NLuc. […] None of the tested compounds interfered with the full-length luciferase enzyme (FIG. 2B, Chart C). Dose-response studies were then performed with compounds ZL0148, ZL0181, and ZL0182 against the FGF14:Nav1.6 complex.

[2] = test system: nucleus accumbens medium spiny neurons; assay: Ex vivo whole-cell patch clamp of neuronal firing in brain tissue slices; assay type: cell-based, mice
Text: It is known in the art that nucleus accumbens plays a critical role in reinforcement-associated learning and in addiction-related behavior. See e.g., Woodruff-Pak, D. S., et al., Behavioral neuroscience 120:229-240 (2006); McKinney, B. C., et al., Genes, brain, and behavior 7:629-638 (2008). It has been shown that Nav1.6 channels are expressed at the nucleus accumbens medium spiny neurons. Shah, B. S., et al., The Journal of Physiology 534(Pt 3):763-776 (2001). The effect of ZL0181 on neuronal firing along with active and passive properties was tested using whole-cell patch clamp techniques in brain tissue slices. Nucleus accumbens medium spiny neurons (MNS) were treated with either DMSO (0.05×) or ZL0181 (50 μM) for one hour in an incubation chamber before being transferred to submerge experimental chamber perfused with oxygenated artificial cerebrospinal fluid for patch clamp experiments. […] For instance, at current step of 150 pA the number of spikes in DMSO treated MSNs was 18.4±1.3, n=8 versus 6.9±2.3, n=10 in ZL0181 treated MSNs; p<0.005 with Student t-test (FIG. 4B, Chart C). To test the mechanisms underlying neuronal firing reduction and related to sodium channels activity, action potential voltage and current thresholds were measured.
Coronal nucleus accumbens slices were prepared from FGF14−/− or wild type mice either treated with ZL0181 or vehicle control. Evoked action potentials were recorded in regular ASCF solution at 30-31° C. using Axopatch 200B and 700B amplifiers (Molecular Devices, Union City, Calif.). Recordings were filtered at 2 kHz and digitized at 10-20 kHz using a Digidata 1320 analog-to-digital interface and pClamp9 acquisition software (Molecular Devices, Union City, Calif.). Patch pipettes (4-6 MΩ) were prepared from borosilicate glass using a Narishige PC-10 vertical puller (Narishige International Inc., East Meadow, N.Y.). The extracellular bath solution contained (in mM) 130 NaCl, 3.5 KCl, 10 glucose, 1.5 MgCl2, 1.4 CaCl2, 23 NaHCO3, 1.25 NaH2PO4, osmolarity 300-310, pH 7.4, and the intracellular recording solution contained (in mM) 120 CH3KO3S, 10 KCl, 10 HEPES, 10 glucose, 2 MgCl2, 0.5 EGTA, 2 MgATP, and 0.5 NaGTP, osmolarity 280-290, pH 7.3. Upon forming a whole-cell connection, artificial cerebrospinal fluid containing 10 μM bicucilline (Tocris Bioscience), 30 μM NBQX (Tocris Bioscience), and 100 μM D-APV (Tocris Bioscience) was perfused into the bath solution in order to block synaptic transmission.
After seal formation and membrane rupture, action potential trains were evoked with current step protocol injections of 10 pA increment.

CC(C)C[C@H](NC(=O)[C@H](Cc1ccccc1)NC(=O)OCc1ccccc1)C(=O)N1CCC[C@H]1C(=O)N[C@@H](CCCCNC(=O)OC(C)(C)C)C(N)=O [ZL0181, Z-Phe-Leu-Pro-Lys(Boc)-NH2] (Cbz-FLPK(Boc)-NH2)
luminescence response compared to control (DMSO) [1]: 75±6% | number of spikes ([2]; 50 μM for one hour, current step of 150 pA, n=10, DMSO 18.4±1.3): 6.9±2.3 | action potential current threshold ([2]; 50 μM for one hour, n=10, DMSO 72.5±11.5): 135.8±12.5 pA | action potential voltage threshold ([2]; 50 μM for one hour, n=10, DMSO −35.9±2.3): −27.8±2 mV | further neuronal active and passive properties ([2]; 50 μM, compared to DMSO control): no significant changes

Reference: US10889543B2, “Fine-tune modulators of neuronal excitability for neuropsychiatric disorders” (THE BOARD OF REGENTS OF THE UNIVERSITY OF TEXAS SYSTEM, priority 2016, dated 2021)
